Data published in patent US11840706B2, “Composition and method for generating a desired cell type and/or tissue type from hair follicular stem cells” (priority 2013, dated 2023).
Entries after “also recorded” stand apart in the source; their conditions may differ.

System: keratinocytes
Assay: Effect of vanadium compounds on proliferation of keratinocytes (hair follicle culture, cell count)
Type: cell-based
Conditions: 14 days culture; for amount of proliferated keratinocytes relative to the control situation: 1 mg/ml in basic SFK growth medium, 31° C., control = SFK medium lacking a vanadium compound
Procedure: Method: Hair follicles were transferred to a 24-well culture disk containing dSFK with 500 mg/ml penicillin (Life Technologies B.V. Breda, The Netherlands) and 0.25 μg/ml streptomycin (Life Technologies B.V. Breda, The Netherlands), and placed for 14 days in a culture medium at 31° C. in a humidified atmosphere containing 5% CO2. Three different culture medium were used: • Treatment group oxovanadium (OVAN): The culture medium is a composition comprising a basic SFK growth serum (purchased from the supplier SFK, Enschede The Netherlands) supplemented with either 1 mg/ml of OVAN. • Treatment group bis (maltolato) oxovanadium (BMOV): The culture medium is a composition comprising a basic SFK growth serum (purchased from the supplier SFK, Enschede The Netherlands) supplemented with either 1 mg/ml of BMOV. • Control group: The control situation consists of a composition comprising the SFK basic growth serum but without the vanadium compounds (i.e. OVAN or BMOV).
The respective culture media were carefully removed every three days and replaced by fresh culture media. The cells remained attached to the hair follicles during this culture period. After 14 days the culture medium was removed and replaced by a 0.5 mg/ml trypsin, 0.2 mg/ml EDTA (ethylene diaminetetraacetic acid) solution (Life Technologies B.V. Breda, The Netherlands), and incubated for 5 minutes at 37° C. in this medium. After this incubation period clusters of cells were released from the hair follicles. These were harvested by centrifugation at 300 g at 4° C. for 5 minutes in an Eppendorf 5804R Centrifuge (VWR International, The Netherlands). Number of cells were counted and expressed as amount of proliferated cells per ml of culture medium.

| Compound | proliferation of keratinocytes, BMOV compared with OVAN (1 mg/ml each) | amount of proliferated keratinocytes relative to the control situation |
| --- | --- | --- |
| Cc1occc(=O)c1[O-].Cc1occc(=O)c1[O-].[O]=[V+2] [BMOV, bis(maltolato) oxovanadium] | greater number of proliferated cells relative to treatment with OVAN; also recorded: more potent than OVAN | enhanced proliferation; also recorded: significantly increased |
| oxovanadium | – | enhanced proliferation; also recorded: significantly increased |
